Assay results as given in ChEMBL document CHEMBL5465560, “Selectivity Literature for EUbOPEN Chemogenomic Library” (2024).
One block for each molecule: values may come before it.

Assays:
[1] = biological target: Mitogen-activated protein kinase 11 (Homo sapiens) (UniProt Q15759); experiment: Selectivity interaction (ActivX KiNativ screen (kinase selectivity in THP-1 cell lysates)) EUB0000639a MAPK11; assay type: subcellular; details: lysate
[2] = biological target: T1, Serine/threonine-protein kinase Nek11 (Homo sapiens) (UniProt Q8NG66); experiment: Selectivity interaction (KinomeScan (DiscoverX)) EUB0001079a NEK11; details: at 1 µM
T1 sequence (whole entry): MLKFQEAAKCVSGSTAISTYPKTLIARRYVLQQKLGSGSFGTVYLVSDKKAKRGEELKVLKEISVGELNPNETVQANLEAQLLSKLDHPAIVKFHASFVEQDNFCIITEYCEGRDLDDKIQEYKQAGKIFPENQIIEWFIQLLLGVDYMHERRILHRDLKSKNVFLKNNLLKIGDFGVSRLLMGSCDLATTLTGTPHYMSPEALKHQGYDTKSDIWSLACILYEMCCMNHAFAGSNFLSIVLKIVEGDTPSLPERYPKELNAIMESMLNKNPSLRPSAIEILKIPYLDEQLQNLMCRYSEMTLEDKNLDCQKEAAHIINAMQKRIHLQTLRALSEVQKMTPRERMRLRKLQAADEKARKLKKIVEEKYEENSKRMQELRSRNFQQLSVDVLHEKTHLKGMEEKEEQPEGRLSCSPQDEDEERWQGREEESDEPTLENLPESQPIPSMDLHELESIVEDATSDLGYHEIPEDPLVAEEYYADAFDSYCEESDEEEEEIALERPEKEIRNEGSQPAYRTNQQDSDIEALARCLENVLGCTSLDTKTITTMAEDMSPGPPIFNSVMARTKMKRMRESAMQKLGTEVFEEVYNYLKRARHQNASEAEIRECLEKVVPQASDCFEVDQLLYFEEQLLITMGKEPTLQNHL

[3] = biological target: T2, Serine/threonine-protein kinase Chk1 (Homo sapiens) (UniProt O14757); experiment: Selectivity interaction (ProQinase) EUB0000171b CHEK1
T2 sequence (whole entry): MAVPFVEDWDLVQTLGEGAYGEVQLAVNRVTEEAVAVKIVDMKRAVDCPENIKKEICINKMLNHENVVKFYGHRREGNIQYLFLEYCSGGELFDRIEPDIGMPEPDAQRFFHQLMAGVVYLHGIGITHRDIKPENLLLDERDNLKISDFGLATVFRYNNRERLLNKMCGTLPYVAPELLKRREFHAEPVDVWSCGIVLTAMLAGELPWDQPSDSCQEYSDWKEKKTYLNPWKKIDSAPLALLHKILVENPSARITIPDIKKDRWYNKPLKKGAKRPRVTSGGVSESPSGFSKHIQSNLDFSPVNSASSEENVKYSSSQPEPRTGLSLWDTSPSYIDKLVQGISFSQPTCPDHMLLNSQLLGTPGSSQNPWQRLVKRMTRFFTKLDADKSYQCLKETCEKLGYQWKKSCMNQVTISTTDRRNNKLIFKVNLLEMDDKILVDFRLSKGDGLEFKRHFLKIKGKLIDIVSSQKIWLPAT

[4] = biological target: T3, Muscle, skeletal receptor tyrosine-protein kinase (Homo sapiens) (UniProt O15146); experiment: Selectivity interaction (KinomeScan (DiscoverX)) EUB0000045b MUSK
T3 sequence (whole entry): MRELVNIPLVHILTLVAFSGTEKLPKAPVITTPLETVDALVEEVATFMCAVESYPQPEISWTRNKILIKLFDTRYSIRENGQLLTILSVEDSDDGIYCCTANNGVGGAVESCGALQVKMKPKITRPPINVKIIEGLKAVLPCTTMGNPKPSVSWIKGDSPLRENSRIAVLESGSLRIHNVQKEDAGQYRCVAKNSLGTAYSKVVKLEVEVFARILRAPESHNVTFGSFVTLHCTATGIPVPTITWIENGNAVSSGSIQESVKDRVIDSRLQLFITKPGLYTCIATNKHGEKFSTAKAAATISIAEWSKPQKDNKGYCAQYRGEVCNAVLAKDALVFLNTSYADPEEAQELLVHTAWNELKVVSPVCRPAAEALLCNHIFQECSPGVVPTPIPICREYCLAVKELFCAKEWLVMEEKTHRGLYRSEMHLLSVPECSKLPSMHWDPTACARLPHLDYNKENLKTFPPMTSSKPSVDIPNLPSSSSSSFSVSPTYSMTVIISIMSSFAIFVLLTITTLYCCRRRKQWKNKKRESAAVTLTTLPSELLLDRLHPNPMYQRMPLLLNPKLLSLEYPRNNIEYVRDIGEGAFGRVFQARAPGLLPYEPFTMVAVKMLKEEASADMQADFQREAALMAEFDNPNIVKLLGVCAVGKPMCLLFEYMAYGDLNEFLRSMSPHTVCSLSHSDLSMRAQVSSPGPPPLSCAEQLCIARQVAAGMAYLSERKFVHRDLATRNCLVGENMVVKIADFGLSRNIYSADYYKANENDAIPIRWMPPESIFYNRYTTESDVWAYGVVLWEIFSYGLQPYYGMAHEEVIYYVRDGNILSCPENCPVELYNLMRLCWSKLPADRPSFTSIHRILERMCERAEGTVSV

[5] = biological target: T4, Rhodopsin kinase GRK7 (Homo sapiens) (UniProt Q8WTQ7); experiment: Selectivity interaction (KinomeScan (DiscoverX)) EUB0000655a GRK7; details: at 10 µM
T4 sequence (whole entry): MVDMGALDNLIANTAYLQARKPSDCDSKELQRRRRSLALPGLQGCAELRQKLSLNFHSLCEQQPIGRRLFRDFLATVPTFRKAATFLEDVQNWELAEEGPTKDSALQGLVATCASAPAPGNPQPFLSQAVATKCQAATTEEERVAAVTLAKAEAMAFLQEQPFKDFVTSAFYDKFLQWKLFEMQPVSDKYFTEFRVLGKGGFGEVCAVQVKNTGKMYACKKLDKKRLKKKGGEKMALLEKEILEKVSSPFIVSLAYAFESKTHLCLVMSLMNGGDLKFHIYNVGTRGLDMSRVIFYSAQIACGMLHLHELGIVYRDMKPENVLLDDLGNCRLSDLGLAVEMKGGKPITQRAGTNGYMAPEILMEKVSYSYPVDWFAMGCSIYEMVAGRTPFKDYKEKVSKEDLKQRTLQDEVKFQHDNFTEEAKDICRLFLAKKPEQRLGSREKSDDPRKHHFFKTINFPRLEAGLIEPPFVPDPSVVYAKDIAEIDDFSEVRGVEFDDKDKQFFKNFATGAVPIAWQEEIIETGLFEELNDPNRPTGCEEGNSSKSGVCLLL

Sequence of Mitogen-activated protein kinase 11 (Homo sapiens) (Q15759 whole entry): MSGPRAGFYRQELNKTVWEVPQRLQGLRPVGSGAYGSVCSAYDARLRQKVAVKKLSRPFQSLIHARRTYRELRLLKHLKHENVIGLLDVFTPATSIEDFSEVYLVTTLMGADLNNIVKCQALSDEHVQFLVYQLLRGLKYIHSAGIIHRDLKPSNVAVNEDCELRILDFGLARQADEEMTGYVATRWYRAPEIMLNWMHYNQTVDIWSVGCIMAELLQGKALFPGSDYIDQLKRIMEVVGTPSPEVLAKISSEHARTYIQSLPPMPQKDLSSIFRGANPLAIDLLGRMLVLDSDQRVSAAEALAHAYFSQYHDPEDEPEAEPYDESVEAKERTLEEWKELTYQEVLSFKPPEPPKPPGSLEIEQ

% of inhibition ([1]; at 0.01 µM): -7.8%
% of inhibition ([1]; at 0.04 µM): -35.7%
% of inhibition ([1]; at 0.2 µM): -16.6%
% of inhibition ([1]; at 1 µM): -3.6%
% of inhibition ([1]; at 5 µM): -19.3%
Compound: CC[C@@H]1[C@H](F)C(=O)N[C@@H]1COc1nccc2cc(C(N)=O)c(OC)cc12 [ZIMLOVISERTIB]

Compound: Nc1cnc(N2CCc3cc(S(=O)(=O)Nc4c(F)cc(Cl)cc4F)cc(N4CCCC4=O)c32)nc1 [TP-020n]
% of control [2]: 100%

% of control ([3]; at 1 µM): 94%
% of control ([3]; at 5 µM): 100%
Compound: C=CC(=O)Nc1cccc(C(=O)Nc2ccc(Nc3cc(-c4[nH]c(SC)nc4C)ccn3)cc2)c1

Compound: C=CC(=O)Nc1cc(-n2c(=O)ccc3cnc4ccc(-c5ccc(NS(C)(=O)=O)cc5)cc4c32)ccc1C
% of control ([4]; at 1 µM): 100%
% of control ([4]; at 10 µM): 82%

Compound: CN(C)CCOc1ccc(-c2nc(-c3ccncc3)c(-c3ccc4c(c3)CC/C4=N\O)[nH]2)cc1
% of control [5]: 100%
